In ChEMBL document CHEMBL1148045, “Dactyltronic acids from the sponge Dactylospongia elegans” (J Nat Prod, 1994):
In brackets after ≈: the same amount, converted by molar mass.

Experiments:
[1] = system: A549; assay: Cytotoxicity against human A549 cells; type: functional, cell-based
[2] = system: P388; assay: Cytotoxicity against mouse P388 cells; type: functional, cell-based

Work on `C=C1CCC[C@H]2[C@](C)(CC(=O)C3=C(O)C(OC)OC3=O)[C@@H](C)CC[C@]12C` (some centres not stated) [DACTYLTRONIC ACID] yielded an IC50 [1] of 10 µg/mL (≈ 27.6 µM) and an IC50 [2] of 10 µg/mL (≈ 27.6 µM).
